According to patent US20250100977A1, “MERCAPTOPYRIMIDINE COMPOUNDS THAT INHIBIT NONHOMOLOGOUS END JOINING AND METHODS THEREOF” (INDIAN INSTITUTE OF SCIENCE, priority 2021, published 2025):

Tested on: B cells (CD19+) and T cells (CD3+)
Assay: B and T cells after 28 days SCR116 treatment
Type: in vivo, swiss albino mice
Conditions: oral 80, 160 and 320 mg/kg b.wt.
Description: FIG. 14(A-B) depicts the evaluation of effect on B cells after SCR 116 treatment for 28 days in normal swiss albino mice A. After oral administration of low, medium, and high concentrations of SCR116 (80, 160 and 320 mg/kg b.wt. respectively). B is showing quantitation of the total B cell population (CD19+). (ns: not significant, *p<0.05: **p<0.005), in accordance with an implementation of the present disclosure.
FIG. 15(A-B) depicts the evaluation of the effect on T cells after SCR116 treatment for 28 days in normal swiss albino mice. A. After oral administration of low, medium and high concentrations of SCR116 (80, 160 and 320 mg/kg b.wt. respectively). B. is showing the quantitation of the total T cell population (CD3+). (ns: not significant, *p<0.05: **p<0.005), in accordance with an implementation of the present disclosure.
FIG. 13 depicts the blood parameters analysis of Swiss albino mice after 10 days of dose-ranging study after treating with SCR116 and SCR132. A. RBC (n=3). B. Hemoglobin (n=3). C. MCHC (n=3). D. Total leukocyte count (n=3). E. Platelet count (n=3) (ns: not significant, *p<0.05: **p<0.005).

Which “Production of B cells” value does the source give for `Nc1nc(S)nc(O)c1/N=C/c1ccc([N+](=O)[O-])s1` [Compound 16, (E)-6-amino-2-mercapto-5-(((5-nitrothiophen-2-yl)methylene)amino)pyrimidin-4-ol] here?
The value was “no significant changes”.

What about the “Production of T cells” value of the same compound?
Its value is “no significant changes”.
